Measured values: ChEMBL document CHEMBL1201862, “PubChem BioAssay data set” (2004)
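Results reflect a 48-hour exposure of cells in 96-well plates to compound at five concentrations. Abbreviation: GI50, concentration required for 50% inhibition of growth.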 The source made the active and inactive calls. Cut-off read from the data, not from the text of the source: active = GI50 up to about 1.1 µM and inactive = higher.

What was measured:
Experiment in all cases: NCI tumour cell line growth inhibition, 48 h
HT-29 = system: HT-29
MOLT-4 = system: MOLT-4
LOX IMVI = system: LOX IMVI
SNB-75 = system: SNB-75
RXF 631 = system: RXF 631
DMS-273 = system: DMS-273
TK-10 = system: TK-10
SK-MEL-5 = system: SK-MEL-5
SK-OV-3 = system: SK-OV-3
M14 = system: M14
NCI-H226 = system: NCI-H226
M19-MEL = system: M19-MEL
OVCAR-4 = system: OVCAR-4
SR = system: SR
SNB-78 = system: SNB-78
DLD-1 = system: DLD-1
SW-620 = system: SW-620
EKVX = system: EKVX
SF-268 = system: SF-268
786-0 = system: 786-0
UACC-62 = system: UACC-62
K562 = system: K562
HOP-18 = system: HOP-18
OVCAR-5 = system: OVCAR-5
SK-MEL-28 = system: SK-MEL-28
RXF 393 = system: RXF 393
OVCAR-8 = system: OVCAR-8
CCRF-CEM = system: CCRF-CEM
U-251 = system: U-251
HL-60 = system: HL-60
A549 = system: A549
KM12 = system: KM12
IGROV-1 = system: IGROV-1
OVCAR-3 = system: OVCAR-3
COLO 205 = system: COLO 205
SF-295 = system: SF-295
SNB-19 = system: SNB-19
LXFL 529 = system: LXFL 529
NCI-H23 = system: NCI-H23
SF-539 = system: SF-539
ACHN = system: ACHN
RPMI-8226 = system: RPMI-8226
UO-31 = system: UO-31
DMS-114 = system: DMS-114
HCT-116 = system: HCT-116
CAKI-1 = system: CAKI-1
HCT-15 = system: HCT-15
A498 = system: A498
NCI-H522 = system: NCI-H522
UACC-257 = system: UACC-257
SK-MEL-2 = system: SK-MEL-2
SN12C = system: SN12C
NCI-H460 = system: NCI-H460
Malme-3M = system: Malme-3M
HOP-92 = system: HOP-92
HOP-62 = system: HOP-62
KM-20L2 = system: KM-20L2
HCC 2998 = system: HCC 2998

With `O=C1C(=O)N(C(=O)c2ccc(Cl)c(Cl)c2)c2ccccc21` the GI50 (HT-29) was > 100 µM (inactive), the GI50 (MOLT-4) was > 100 µM (inactive) and the GI50 (LOX IMVI) was > 100 µM (inactive). The GI50 (SNB-75) was 58.6 µM (inactive), the GI50 (RXF 631) was > 100 µM (inactive) and the GI50 (DMS-273) was > 100 µM (inactive). For the same compound, the GI50 (TK-10) was > 100 µM (inactive), the GI50 (SK-MEL-5) was > 100 µM (inactive) and the GI50 (SK-OV-3) was > 100 µM (inactive). The GI50 (M14) was > 100 µM (inactive), the GI50 (NCI-H226) was 44.9 µM (inactive) and the GI50 (M19-MEL) was > 100 µM (inactive). For the same compound, the GI50 (OVCAR-4) was > 100 µM (inactive), the GI50 (SR) was > 100 µM (inactive) and the GI50 (SNB-78) was > 100 µM (inactive). The GI50 (DLD-1) was > 100 µM (inactive), the GI50 (SW-620) was > 100 µM (inactive) and the GI50 (EKVX) was > 100 µM (inactive). For the same compound, the GI50 (SF-268) was > 100 µM (inactive), the GI50 (786-0) was > 100 µM (inactive) and the GI50 (UACC-62) was > 100 µM (inactive). The GI50 (K562) was > 100 µM (inactive), the GI50 (HOP-18) was > 100 µM (inactive) and the GI50 (OVCAR-5) was > 100 µM (inactive). For the same compound, the GI50 (SK-MEL-28) was > 100 µM (inactive), the GI50 (RXF 393) was > 100 µM (inactive) and the GI50 (OVCAR-8) was > 100 µM (inactive). The GI50 (CCRF-CEM) was > 100 µM (inactive), the GI50 (U-251) was > 100 µM (inactive) and the GI50 (HL-60) was > 100 µM (inactive). The GI50 (A549) was > 100 µM (inactive), the GI50 (KM12) was > 100 µM (inactive) and the GI50 (IGROV-1) was > 100 µM (inactive). For the same compound, the GI50 (OVCAR-3) was > 100 µM (inactive), the GI50 (COLO 205) was > 100 µM (inactive) and the GI50 (SF-295) was > 100 µM (inactive). The GI50 (SNB-19) was > 100 µM (inactive), the GI50 (LXFL 529) was > 100 µM (inactive) and the GI50 (NCI-H23) was > 100 µM (inactive). The GI50 (SF-539) was > 100 µM (inactive), the GI50 (ACHN) was > 100 µM (inactive) and the GI50 (RPMI-8226) was > 100 µM (inactive). The GI50 (UO-31) was > 100 µM (inactive) and the GI50 (DMS-114) was > 100 µM (inactive).
In the case of `CCOC(=O)C1C(=O)C(C(=O)OCC)C(c2ccccc2)N(C)C1c1ccccc1` (configuration not stated), the GI50 (HT-29) is reported as > 100 µM (inactive), the GI50 (MOLT-4) is reported as 49.5 µM (inactive) and the GI50 (HCT-116) is reported as 58.2 µM (inactive). The GI50 (CAKI-1) was > 100 µM (inactive), the GI50 (HCT-15) was 82.4 µM and the GI50 (LOX IMVI) was 33.9 µM (inactive). The GI50 (SNB-75) was > 100 µM (inactive), the GI50 (A498) was > 100 µM (inactive) and the GI50 (RXF 631) was > 100 µM (inactive). For the same compound, the GI50 (DMS-273) was > 100 µM (inactive), the GI50 (NCI-H522) was 49.9 µM (inactive) and the GI50 (TK-10) was > 100 µM (inactive). For the same compound, the GI50 (SK-MEL-5) was 66.4 µM (inactive), the GI50 (UACC-257) was > 100 µM (inactive) and the GI50 (SK-OV-3) was > 100 µM (inactive). For the same compound, the GI50 (M14) was > 100 µM (inactive), the GI50 (NCI-H226) was > 100 µM (inactive) and the GI50 (SK-MEL-2) was > 100 µM (inactive). For the same compound, the GI50 (M19-MEL) was > 100 µM (inactive), the GI50 (OVCAR-4) was > 100 µM (inactive) and the GI50 (SR) was > 100 µM (inactive). The GI50 (SNB-78) was > 100 µM (inactive), the GI50 (SN12C) was > 100 µM (inactive) and the GI50 (NCI-H460) was > 100 µM (inactive). The GI50 (DLD-1) was > 100 µM (inactive), the GI50 (SW-620) was > 100 µM (inactive) and the GI50 (EKVX) was > 100 µM (inactive). For the same compound, the GI50 (SF-268) was > 100 µM (inactive), the GI50 (786-0) was > 100 µM (inactive) and the GI50 (UACC-62) was 65.6 µM (inactive). For the same compound, the GI50 (K562) was > 100 µM (inactive), the GI50 (OVCAR-5) was > 100 µM (inactive) and the GI50 (Malme-3M) was > 100 µM (inactive). For the same compound, the GI50 (SK-MEL-28) was > 100 µM (inactive), the GI50 (RXF 393) was > 100 µM (inactive) and the GI50 (OVCAR-8) was > 100 µM (inactive). The GI50 (CCRF-CEM) was > 100 µM (inactive), the GI50 (U-251) was 95.9 µM (inactive) and the GI50 (HL-60) was 38.7 µM (inactive). The GI50 (A549) was > 100 µM (inactive), the GI50 (KM12) was > 100 µM (inactive) and the GI50 (IGROV-1) was > 100 µM (inactive). The GI50 (HOP-92) was > 100 µM (inactive), the GI50 (HOP-62) was > 100 µM (inactive) and the GI50 (OVCAR-3) was > 100 µM (inactive). The GI50 (KM-20L2) was > 100 µM (inactive), the GI50 (COLO 205) was > 100 µM (inactive) and the GI50 (SF-295) was > 100 µM (inactive). The GI50 (SNB-19) was > 100 µM (inactive), the GI50 (LXFL 529) was > 100 µM (inactive) and the GI50 (NCI-H23) was > 100 µM (inactive). For the same compound, the GI50 (SF-539) was > 100 µM (inactive), the GI50 (ACHN) was > 100 µM (inactive) and the GI50 (UO-31) was > 100 µM (inactive). For the same compound, the GI50 (DMS-114) was 56 µM (inactive).
In the case of `COc1ccc2c(c1OC)C(C=C(c1ccccc1)c1ccccc1)CN(C)C2` (configuration not stated), the GI50 (HT-29) is reported as 6.82 µM (inactive), the GI50 (MOLT-4) is reported as 31.6 µM (inactive) and the GI50 (HCT-116) is reported as 8.39 µM (inactive). The GI50 (CAKI-1) was 14.2 µM (inactive), the GI50 (HCT-15) was 15 µM and the GI50 (SNB-75) was 34.3 µM (inactive). The GI50 (A498) was 17 µM (inactive), the GI50 (RXF 631) was 17.4 µM (inactive) and the GI50 (DMS-273) was 17.5 µM (inactive). The GI50 (NCI-H522) was 17.2 µM (inactive), the GI50 (TK-10) was 22 µM (inactive) and the GI50 (SK-MEL-5) was 15.8 µM (inactive). The GI50 (UACC-257) was 21.8 µM (inactive), the GI50 (SK-OV-3) was 27.4 µM (inactive) and the GI50 (M14) was 14.5 µM (inactive). For the same compound, the GI50 (NCI-H226) was 22.6 µM (inactive), the GI50 (M19-MEL) was 30.5 µM (inactive) and the GI50 (OVCAR-4) was 41.4 µM (inactive). For the same compound, the GI50 (SNB-78) was 34.6 µM (inactive), the GI50 (SN12C) was 25.5 µM (inactive) and the GI50 (NCI-H460) was 11.7 µM (inactive). For the same compound, the GI50 (DLD-1) was 23.4 µM (inactive), the GI50 (SW-620) was 13.4 µM (inactive) and the GI50 (EKVX) was 35.3 µM (inactive). The GI50 (SF-268) was 27.1 µM (inactive), the GI50 (786-0) was 16.7 µM (inactive) and the GI50 (UACC-62) was 17.3 µM (inactive). The GI50 (K562) was 6.21 µM (inactive), the GI50 (HOP-18) was 17.6 µM (inactive) and the GI50 (OVCAR-5) was 6.79 µM (inactive). For the same compound, the GI50 (Malme-3M) was 20.2 µM (inactive), the GI50 (SK-MEL-28) was 22.4 µM (inactive) and the GI50 (OVCAR-8) was 20.4 µM (inactive). The GI50 (CCRF-CEM) was 21.3 µM (inactive), the GI50 (U-251) was 20 µM (inactive) and the GI50 (A549) was 30 µM (inactive). The GI50 (KM12) was 18.9 µM (inactive), the GI50 (IGROV-1) was 14.8 µM (inactive) and the GI50 (HCC 2998) was 24.9 µM (inactive). For the same compound, the GI50 (HOP-92) was 14.2 µM (inactive), the GI50 (HOP-62) was 20.6 µM (inactive) and the GI50 (OVCAR-3) was 12.8 µM (inactive). For the same compound, the GI50 (KM-20L2) was 10.3 µM (inactive), the GI50 (COLO 205) was 14.5 µM (inactive) and the GI50 (SF-295) was 16.2 µM (inactive). For the same compound, the GI50 (SNB-19) was 29.9 µM (inactive), the GI50 (LXFL 529) was 14.4 µM (inactive) and the GI50 (NCI-H23) was 22.4 µM (inactive). For the same compound, the GI50 (SF-539) was 21.9 µM (inactive), the GI50 (ACHN) was 24.4 µM (inactive) and the GI50 (RPMI-8226) was 18.2 µM (inactive). For the same compound, the GI50 (UO-31) was 20 µM (inactive) and the GI50 (DMS-114) was 13.9 µM (inactive).
